Consider one compound from US20140294849A1, “COMPOSITIONS AND USES” (GLAXOSMITHKLINE BIOLOGICALS SA, priority 2011, published 2014).

Assay [1] has as its system CD11b+ peripheral blood monocytes. The assay is described as follows: Ex vivo uptake assay of Aβ1-42. The settings on record: Example 14; AS01B mouse full dose (5 ug per mouse) or CRX601 2 μg, i.m. Format: cell-based, C57BL/6 mice. How it is done:
Preparation of cells: Peripheral blood was drawn from C57BL/6 mice via cardiac puncture with lithium-heparin as anticoagulant, 24-hours after injection of the adjuvants used herein. Red blood cell lysis was performed twice on pooled blood with Ammonium Chloride-based Buffer (Sigma, Steinheim, Germany) and cells were counted with the EasyCount™ System (Immunicon). […]
FACS analysis: cells were harvested after incubation with fluorescent Aβ peptide with Trypsin/EDTA and cold PBS and washed three times. 500,000 cells were incubated in 96-well plate for 10 min. on ice in the presence of Rat anti-Mouse CD16/CD32 (clone 2.4G2—BD Fc Block™) and further stained for 30 min. with a combination of the following directly conjugated antibodies at their pre-determined optimal concentration: PE-Hamster anti-Mouse CD3 (clone 145-2C11), Rat anti-Mouse CD45R/B220 (clone RA3-6B2), Rat anti-Mouse Ly-6G (clone 1A8), Mouse anti-Mouse NK1.1 (clone PK136), APC-conjugated Rat anti-Mouse CD11b (clone M1/70), PE-Cy7-conjugated Hamster anti-Mouse CD11c (clone HL3), (all from BD PharMingen). […]
Samples were acquired on a flow cytometer (BD FACSCanto II) and data analyzed with the FACSDiva software (BD Biosciences). […]

Assay [2] deals with spatial learning and memory. As to the kind of experiment: T-water maze in APP/PS1 mice. Type of assay: in vivo, APPSwe/PS1 mice. How it is done: Five groups of APPSwe/PS1 mice received one a week for a period of 12 weeks the following treatment: • Gr1: APPSwe/PS1+NaCl 0.9% n(=20), i.p. injections • Gr4: APPSwe/PS1+CRX527 (20 μg/mouse, 130 μl, n=10), i.p. injections • Gr5: […] (50 μg/mouse, 130 μl, n=10), i.p. injections • Gr8 APPSwe/PS1+AS15 ( 1/10th of human dose, 50 μl, n=10), i.m. injections • Gr9: APPSwe/PS1+AS01B ( 1/10th of human dose, 50 μl, n=10), i.m. injections
Mice were tested during the “light on” phase of the day. Behavioral experimenter was blinded to the genetic and treatment status of animals. To assess hippocampal-dependent spatial learning and memory, mice were trained in the T-water maze task. In this paradigm, we evaluate the mouse's ability to remember the spatial location of submerged platform. The T-maze apparatus (length of stem, 64 cm; length of arms, 30 cm; width, 12 cm; height of walls, 16 cm) was made of clear fiberglass and filled with water (23±1° C.) at a height of 12 cm. A platform (11×11 cm) was placed at the end of the target arm and was submerged 1 cm below the surface. The acquisition phase allows to evaluate animals for left-right spatial learning. During the first two trials, platforms were placed on each arms of the maze to test the spontaneous turning preference of the mouse. After these two trials, the least chosen arm was reinforced by the escape platform. The mice were placed in the stem of the T-maze and choose to swim either left or right until they found the submerged platform and escape to it, to a maximum of 60 s. After reaching the platform, the mice remained on it for 20 s and then were immediately placed back in the maze. […] Repeated trials were presented on the same day up to a maximum of 48 trials. A rest period of at least 10-15 min intervened between each block of 10 trials. A mouse was considered to have learned the task when it made no errors in a block of five consecutive trials. The reversal learning phase was then conducted 48 h later. During this phase, the same protocol was repeated, except that the mice were trained to find the escape platform on the opposite side to that on which they had learned on acquisition phase. The number of trials to reach the criterion (five of five correct choices made on consecutive trials) was measured as well as the latency to find the escape platform.

Take `CCCCCCCCCCC[C@H](CC(=O)N[C@H]1[C@H](OC[C@H](NC(=O)C[C@@H](CCCCCCCCCCC)OCCCCCCCCCC)C(=O)O)O[C@H](CO)[C@@H](OP(=O)(O)O)[C@@H]1OC(=O)C[C@@H](CCCCCCCCCCC)OCCCCCCCCCC)OCCCCCCCCCC` [CRX601]: the “ex vivo uptake of Aβ42 by monocytes compared to PBS group” value in assay [1] is “higher amount of Aβ42”. Moreover, the “behaviour as assessed by T water maze testing” value in assay [2] (Example 21, twelve weekly injections, vs non treated mice) is “significant improvements in behaviour”. Moreover, the “cognitive functions, T-water maze” value in assay [2] (Example 22, i.m. 12x weekly, CRX601 2 μg, CRX601 2 ug in AS03, 3D MPL 5 ug, AS01B 1/10 human dose, vs PBS, unpaired t-tests) is “significant improvement of their cognitive functions”.
